Usually ED50 stands for the midpoint of the dose-response relation.

The nature of data set [1]: Tail-flick test, analgesic activity in male CD1 mice (oral, 15 min). Type of data set: in vivo. Conditions: for ED50: Mus musculus, po, 0.25 h, read-out: ED50 (95% confidence interval), drug alone; for ED50 at 15 min (95% Cl's), Tramadol: tramadol component. The procedure: For each of the ratios of individual drugs used in the drug combinations tested (Table I), stock solutions were prepared that corresponded to twice the dose of each drug having a concentration expressed in mgdrug(s) per 5 mL of distilled water. For example, in the case of the 1:20 tramadol:codeine ratio, 9.1 mg of tramadol hydrochloride (=8.0 mg of tramadol as the base) and 217.1 mg of codeine phosphate (=160.0 mg of codeine as the free base) were each dissolved in separate 5 mL vials of distilled water to form individual stock solutions. Equal volumes of each of the stock solutions were then combined to prepare the final desired drug combination per 10 mL of distilled water. […] Then 10 mL/kg of the stock solution was injected into the mouse. See, Table I. Each ratio was prepared separately in a similar manner and injected in a volume of 10 mL/kg per mouse.
The preparation of different ratios of a tramadol/oxycodone combination is effected by preparing a stock solution having a concentration expressed in mgdrugs per 10 mL of dissolved water. […] Each ratio was prepared separately in a similar manner and injected in a volume of 10 mL/kg per mouse.
Some mice were dosed orally with the compositions as made in Example 1 and as shown in Table 1 and other mice were dosed orally with the compositions as made in Example 2 and as shown in Table II. The dosing volume was 10 mL/kg.
Analgesic activity was assessed employing the tail-flick test as described by F. D'Amour et al., J. Pharmacol. Exp. Ther., 72, 74 (1941). The test involved subjecting the tail of a mouse to a focused heat stimulus and monitoring the response, i.e., "flicking" (removing) of the tail from the source of the stimulus. The reaction time (latency) of the response was first measured without the administration of any drug composition, and repeated fifteen minutes after the administration of compositions of the invention wherein the components of the compositions are in various ratios. Each mouse was only subjected to one pre- and post-administration test.
The analysis of possible superadditivity for the compositions at each fixed ratio was determined as disclosed by R. J. Tallarida et al., Life Sci., 45, 947 (1989). This procedure involved determination of the total amount in the mixture that is required to produce a specified level of effect, such as 50% (ED50mix), and the corresponding total amount that would be expected under simple additivity (ED50add). Where it was established that ED50mix <ED50add for a specific fixed-ratio,then that composition ratio is superadditive. Both the 1quantities ED50mix and ED50add were random variables; ED50mix was estimated from the dose-response curve for a specific fixed-ratio; ED50add was obtained by combining the ED50 estimates for the two drugs under additivity. ED50mix was then compared to ED50add via a t-test. […] The interaction between tramadol and codeine or […] were determined at precise dosage ratios of tramadol hydrochloride and codeine or oxycodone. Multiple (typically 4-6) coded doses of each selected combination were studied for analgesic effectiveness after 15 minutes using an experimental design which permitted the complete randomization of the separate dosage forms tested.
In the Figures, the diagonal line joining the ED50 values of the two drugs given separately represents the simple additivity of a composition effects at different component ratio. The dotted adjacent lines to the diagonal line define the 95% confidence interval. ED50's falling under the curve (between the line and the origin) indicate superadditivity, i.e., unexpected enhancement of effects. The diagonal dashed lines radiating from the origin represent the dose ratios of tramadol hydrochloride to codeine phosphate (FIG. 1) or oxycodone sulfate (FIG. 2) used in mice receiving the combined drug dosages. The bars through the ED50 points for tramadol and codeine or oxycodone compositions represent the 95% confidence intervals of the ED50.
For orientation: Hot-plate and tail-flick tests time the reaction to a heat stimulus.

The conditions of data set [2]: in vivo; cited from earlier work.
Where [3] appears, read: drug alone, p.o., tail-flick, mice, 15 min.

Where two headings read alike, the source gives them in different places.

For the molecule `COc1ccc2c3c1O[C@H]1[C@@H](O)C=C[C@H]4[C@@H](C2)N(C)CC[C@@]341` [Codeine only], in data set [1] (setting [3]), the ED50 was found to be 71.3 mg/kg. The Analgesia in data set [1] (codeine 10 mg/kg p.o., 15 min) is on record as 0/10; in data set [1] (codeine 20 mg/kg p.o., 15 min), 1/10; in data set [1] (codeine 40 mg/kg p.o., 15 min), 1/10; in data set [1] (codeine 80 mg/kg p.o., 15 min), 5/10; in data set [1] (codeine 160 mg/kg p.o., 15 min), 10/10. In data set [2], the side effects result is “respiratory depression, constipation, tolerance and abuse liability”.
As for `COc1ccc2c3c1O[C@H]1C(=O)CC[C@H]4[C@@H](C2)N(C)CC[C@]314` [hydrocodone], the side effects entry in data set [2] was “respiratory depression, constipation, tolerance and abuse liability”.
As for `COc1ccc2c3c1O[C@H]1C(=O)CC[C@@]4(O)[C@@H](C2)N(C)CC[C@]314` [oxycodone only], the ED50 in data set [1] turned out to be 4.2 mg/kg. In addition, the Analgesia in data set [1] (oxycodone 0.5 mg/kg p.o., 15 min) is 0/10; in data set [1] (oxycodone 1 mg/kg p.o., 15 min) it was 2/20; in data set [1] (oxycodone 2 mg/kg p.o., 15 min), 3/10; in data set [1] (oxycodone 3 mg/kg p.o., 15 min), 2/10; in data set [1] (oxycodone 6 mg/kg p.o., 15 min) it was 5/10; in data set [1] (oxycodone 10 mg/kg p.o., 15 min), 9/10. For the same molecule, the Analgesia in data set [1] (oxycodone 20 mg/kg p.o., 15 min) was 10/10; in data set [1] (oxycodone 30 mg/kg p.o., 15 min), 10/10. Further, in data set [2], the side effects result is “respiratory depression, constipation, tolerance and abuse liability”.
As for `COc1cccc(C2(O)CCCCC2CN(C)C)c1` (stereo not drawn) [tramadol only, (1RS, 2RS) trans-2-[(dimethylamino)-methyl]-1-(3-methoxyphenyl)cyclohexanol], the “ED50 at 15 min (95% Cl's), Tramadol” value in data set [1] (Table I (tramadol:codeine), p.o., 15 min) was found to be 76.8 mg/kg; in data set [1] (Table II (tramadol:oxycodone), p.o., 15 min) it was 76.8 mg/kg. Besides, the “ED50 (95% confidence interval), drug alone” value in data set [1] (setting [3]) was 76.8 (59.2-99.7) mg/kg.

The record behind these values is patent publication US5468744A (priority 1994, dated 1995).
